Reference: patent publication US11040107B2, “Dosing regimens and related compositions and methods” (Apellis Pharmaceuticals, Inc., priority 2017, dated 2021)

What was measured:
[1] = test system: RBCs from a patient with PNH; assay: Modified Ham's test with flow cytometry for CD59 and C3d; assay type: cell-based, human
Procedure: A modified Ham's test was performed to assess the ability of compstatin analogs to protect PNH RBCs from complement-mediated lysis. […] Exposure to heat inactivated human serum was used as a control representing no significant complement-mediated lysis as complement is inactivated by heat. Exposure to acidified human serum and magnesium (Mg^2+) in the absence of complement inhibitors (pane labeled Mg^2+) was used as a control representing maximum lysis.
Following incubation, cells were stained with antibodies to CD59 and C3d. CD59 level permitted the classification of the PNH RBCs as Type I, Type II, or Type III. Staining for C3d, a product of C3 activation and cleavage was used as a marker of C3 and C3 activation product deposition (loading). Flow cytometric analysis was performed to assess CD59 and C3d on RBC surfaces and to quantify the percentages of Type I, Type II, and Type III cells present in various samples.

[2] = Phase 1 single and multiple ascending dose trial of inhaled CA28; assay type: in vivo, human; conditions: for adverse event: one subject
Procedure: In the single ascending dose part of the trial, 16 subjects were enrolled in four cohorts of four subjects each.
Four subjects were enrolled in the first cohort of the multiple ascending dose part of the trial. These subjects were to receive 14 consecutive days of treatment with a 60 mg/day dose of the drug. […] The trial was paused and subsequently resumed, with subjects receiving 30 mg/day. […] The trial was then terminated.

[3] = test system: inflammatory cytokines in the lungs; assay: Ascaris suum challenge model; assay type: in vivo, cynomolgus monkeys; conditions: nebulized 20 mg/day or 15 mg/kg/d for 14 days; during treatment and 28 days after cessation
[4] = molecular target: T1, complement component C3 (human) (human, UniProt P01024 23-1663); assay: cell-based or functional assay
[5] = molecular target: T1, complement component C3 (human); assay: cell-based or functional assay; remark: listed apart in the source
[6] = molecular target: T1, complement component C3 (human); assay: cell-based or functional assay; remark: listed apart in the source
[7] = molecular target: T1, complement component C3 (human); assay: cell-based or functional assay; remark: listed apart in the source
[8] = molecular target: T1, complement component C3 (human); assay: cell-based or functional assay; remark: listed apart in the source

## CC[C@H](C)[C@H](NC(C)=O)C(=O)N[C@H]1CSSC[C@@H](C(=O)N[C@H](C(N)=O)[C@@H](C)O)NC(=O)[C@H](CCCNC(=N)N)NC(=O)[C@H](Cc2cnc[nH]2)NC(=O)[C@H](C)NC(=O)CNC(=O)[C@H](Cc2c[nH]c3ccccc23)NC(=O)[C@H](CC(=O)O)NC(=O)[C@H](CCC(N)=O)NC(=O)[C@H](Cc2cn(C)c3ccccc23)NC(=O)[C@H](C(C)C)NC1=O [CA28]
[1]; 100 ug/ml or more
  protection from complement-mediated lysis: complete protection from complement-mediated lysis
[1]; 1 micrograms/ml
  % C3 (Type I): 1.7%
  % C3 (Type III): 1.2%
[1]; 4 micrograms/ml
  % C3 (Type III): 0.83%
[1]; 8 micrograms/ml
  % C3 (Type III): 0.7%
  Type II %: 66%
[1]; 15 micrograms/ml
  % C3 (Type III): 0.98%
  Type I %: 15%
[1]; 25 micrograms/ml
  % C3 (Type II): 9.3%
  % C3 (Type III): 0.75%
  Type I %: 14.96%
[1]; 100 micrograms/ml
  % C3 (Type I): 0.08%
  % C3 (Type II): 0.92%
  % C3 (Type III): 0.1%
  Type III %: 37.96%
[1]; 100 micrograms/ml compound or higher
  C3 loading on PNH red cells: virtually no C3 loading
[1]; 500 micrograms/ml
  % C3 (Type I): 0.14%
  % C3 (Type II): 0.63%
  % C3 (Type III): 0.09%
[2]; 30 mg/day inhaled, after 10 days
  adverse event: signs and symptoms consistent with a potential bacterial infection
[2]; 60 mg/day inhaled, after nine days
  adverse event: signs and symptoms consistent with a potential bacterial infection
[2]; single inhaled dose 20, 60, 150 or 350 mg
  safety and tolerability: well tolerated
[3]
  levels of inflammatory cytokines in broncheoalveolar lavage fluid after allergen challenge: had a pharmacological effect

B1: CA28-AEEAc-Lys(mPEG40K-hexanoyl) (peptide)
peptide: ICVWQDWGAHRCTK
modifications: N-terminal acetyl; 1-methyl-tryptophan at position 4; disulfide bond Cys2-Cys12; AEEAc spacer between Thr13 and Lys; linear monomethoxy 40 kD PEG (NOF SUNBRIGHT ME-400HS, hexanoyl linkage) on the Lys side chain; C-terminal amide
[4]
  IC50 (read off the curve): % inhibition of classical pathway complement activation (C3b deposition ELISA, human plasma): ~700 nM

B2: CA28-2GS-BF (peptide)
peptide: ICVWQDWGAHRCTK
modifications: not fully specified; N-terminal acetyl; 1-methyl-tryptophan at position 4; disulfide bond Cys2-Cys12; AEEAc spacer between Thr13 and Lys; Lys side chain coupled to one end of a bifunctional linear 40 kD PEG of the GS type (glutaryl, amide plus ester linkage); C-terminal amide
[5]
  Q1 (Type III cells with C3d deposition) % Parent, modified Ham's test, at 50 ug/ml: 0.01%
  Q2 (Type I and II cells with C3d deposition) % Parent, modified Ham's test, at 50 ug/ml: 0.01%
  Q3 (Type III cells without significant C3d deposition) % Parent, modified Ham's test, at 50 ug/ml: 61.5%
  Q4 (Type I and II cells without significant C3d deposition) % Parent, modified Ham's test, at 50 ug/ml: 38.5%

B3: CA28-AEEAc-Lys-(PEG40k) (peptide)
peptide: ICVWQDWGAHRCTK
modifications: N-terminal acetyl; 1-methyl-tryptophan at position 4; disulfide bond Cys2-Cys12; AEEAc spacer between Thr13 and Lys; linear monomethoxy 40 kD PEG (NOF SUNBRIGHT ME-400GS, glutaryl linkage) on the Lys side chain; C-terminal amide
[4]
  IC50 (read off the curve): % inhibition of classical pathway complement activation (C3b deposition ELISA, human plasma): ~700 nM
[6]
  IC50, classical complement inhibition assay (C3b deposition ELISA, human plasma): 1290 nM

B4: (CA28-AEEAc)8-PEG40k (peptide)
peptide: ICVWQDWGAHRCTK
modifications: N-terminal acetyl; 1-methyl-tryptophan at position 4; disulfide bond Cys2-Cys12; AEEAc spacer between Thr13 and Lys; Lys side chain coupled to one arm of an eight-arm 40 kD PEG (NOF SUNBRIGHT HGEO-400GS); C-terminal amide
[6]
  IC50, classical complement inhibition assay, as a function of CA28 moiety concentration: 1930 nM
[7]
  IC50 on a molar basis of the compound, classical complement inhibition assay: ~260 nM

B5: CA28-AEEAc-Lys(mPEG40K-carbonyl) (peptide)
peptide: ICVWQDWGAHRCTK
modifications: N-terminal acetyl; 1-methyl-tryptophan at position 4; disulfide bond Cys2-Cys12; AEEAc spacer between Thr13 and Lys; linear monomethoxy 40 kD PEG (NOF SUNBRIGHT ME-400TS, carbonyl linkage) on the Lys side chain; C-terminal amide
[4]
  IC50 (read off the curve): % inhibition of classical pathway complement activation (C3b deposition ELISA, human plasma): ~700 nM

B6: CA28-AEEAc-Lys-(PEG30k) (peptide)
peptide: ICVWQDWGAHRCTK
modifications: not fully specified; N-terminal acetyl; 1-methyl-tryptophan at position 4; disulfide bond Cys2-Cys12; AEEAc (8-amino-3,6-dioxaoctanoyl) spacer between Thr13 and Lys; linear monofunctional 30 kD PEG (NOF SUNBRIGHT ME-300GS) on the Lys side chain; C-terminal amide
[6]
  IC50, classical complement inhibition assay (C3b deposition ELISA, human plasma): 1260 nM

B7: CA28-AEEAc-Lys(mPEG40K-succinyl) (peptide)
peptide: ICVWQDWGAHRCTK
modifications: N-terminal acetyl; 1-methyl-tryptophan at position 4; disulfide bond Cys2-Cys12; AEEAc spacer between Thr13 and Lys; linear monomethoxy 40 kD PEG (NOF SUNBRIGHT ME-400CS, succinyl linkage) on the Lys side chain; C-terminal amide
[4]
  IC50 (read off the curve): % inhibition of classical pathway complement activation (C3b deposition ELISA, human plasma): ~700 nM

B8: CA28-2TS-BF (peptide)
peptide: ICVWQDWGAHRCTK
modifications: not fully specified; N-terminal acetyl; 1-methyl-tryptophan at position 4; disulfide bond Cys2-Cys12; AEEAc spacer between Thr13 and Lys; Lys side chain coupled by a carbamate to one end of a bifunctional linear 40 kD PEG of the TS type; C-terminal amide
[8]
  IC50 (read off the curve): % inhibition of alternative pathway complement activation (LPS-coated plate, C3b deposition ELISA, human plasma) [B]: ~400 nM
